Experimental data published in ChEMBL document CHEMBL1817605, “Development of a highly selective fluorescence probe for alkaline phosphatase” (Bioorg Med Chem Lett, 2011).
Calls of active or inactive are those of the source. No cut-off for these calls is given here.

How the values were obtained:
[1] = Activity of alkaline phosphatase at 2 uM measured every 2 mins from up to 30 mins by fluorometric analysis
[2] = molecular target: T1, Tyrosine-protein phosphatase non-receptor type 1 (Homo sapiens) (UniProt P18031); test: Activity of PTP1B
T1 sequence (whole entry): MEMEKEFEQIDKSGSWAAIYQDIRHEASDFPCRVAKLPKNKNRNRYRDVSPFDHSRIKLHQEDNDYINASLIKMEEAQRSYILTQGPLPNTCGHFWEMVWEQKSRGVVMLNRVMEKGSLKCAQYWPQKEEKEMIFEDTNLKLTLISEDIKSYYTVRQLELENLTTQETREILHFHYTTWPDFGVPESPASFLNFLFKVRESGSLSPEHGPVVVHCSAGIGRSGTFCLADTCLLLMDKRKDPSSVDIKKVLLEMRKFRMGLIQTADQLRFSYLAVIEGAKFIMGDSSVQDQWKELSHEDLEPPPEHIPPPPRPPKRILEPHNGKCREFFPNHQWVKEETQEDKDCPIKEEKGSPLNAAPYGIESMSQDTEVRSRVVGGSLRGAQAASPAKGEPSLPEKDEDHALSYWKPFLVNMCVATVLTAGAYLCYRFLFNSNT

[3] = molecular target: Serine/threonine-protein phosphatase PP1-alpha catalytic subunit (Homo sapiens) (UniProt P62136); test: Activity of PP1 alpha
Sequence of Serine/threonine-protein phosphatase PP1-alpha catalytic subunit (Homo sapiens) (P62136 whole entry): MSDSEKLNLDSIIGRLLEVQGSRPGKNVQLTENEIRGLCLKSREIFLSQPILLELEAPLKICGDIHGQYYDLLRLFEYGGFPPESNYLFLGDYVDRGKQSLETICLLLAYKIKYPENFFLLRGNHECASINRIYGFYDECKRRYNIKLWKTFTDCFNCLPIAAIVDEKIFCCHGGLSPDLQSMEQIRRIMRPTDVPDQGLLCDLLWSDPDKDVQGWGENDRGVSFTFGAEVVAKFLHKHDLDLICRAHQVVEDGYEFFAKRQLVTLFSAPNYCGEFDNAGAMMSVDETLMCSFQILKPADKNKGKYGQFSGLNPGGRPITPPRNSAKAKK

[4] = Ratio of Vmax to Km for alkaline phosphatase
[5] = Activity of alkaline phosphatase by Michaelis-Menten equation analysis

| SMILES | Activity [1] | Activity [2] | Activity [3] | Vmax/Km [4] | Km [5] | Vmax [5] |
| --- | --- | --- | --- | --- | --- | --- |
| O=C1OC2(c3ccc(OP(=O)(O)O)cc3Oc3cc(OP(=O)(O)O)ccc32)c2ccccc21 | Active | Active | – | – | – | – |
| COc1ccc(-c2c3ccc(=O)cc-3oc3cc(OP(=O)(O)O)ccc23)c(C)c1 | Active | Active | Active | 0.026 min⁻¹ | 0.96 µM | 0.025 µM/min |
| COc1ccc(-c2c3ccc(=O)cc-3oc3cc(OCOP(=O)(O)O)ccc23)c(C)c1 | Active | inactive | inactive | 0.043 min⁻¹ | 0.77 µM | 0.033 µM/min |
